From patent US12146004B2, “Polymyxin compounds and uses thereof” (priority 2014, dated 2024)
Values after ≈ are worked out from the molar mass of the structure shown. Numbered stars: 1 amine (or outer) side, 2 acyl side, 3 side chain; on linkers, the order of the positions; unused ones are H or OH. Bridge positions count the residues as written; N and C are the ends. Square brackets hold non-standard residues; d marks the D form. Peptide text beside a SMILES is read from it. * marks the point of attachment. ξ: configuration not given here. X11 = O=C([C@@H](Cc1ccc(-c2ccncc2)cc1)N[*:1])[*:2]; X12 = O=C([C@@H](Cc1ccc(C2CCCCC2)cc1)N[*:1])[*:2]; Octanoyl(6-Me) = CCC(C)CCCCC(=O)*; dCha = N[C@H](CC1CCCCC1)C(=O)O; Thr(3ξ) = CC(O)[C@H](N)C(=O)O; Dab = NCC[C@H](N)C(=O)O; Dap = NC[C@H](N)C(=O)O; X2 = CC(C)CC(CN)C(=O)*

Assays:
Assay type in all cases: cell-based
[1] = tested on: HK-2 cells
Excerpt: Values are reported relative to Polymyxin B.

[2] = tested on: Pseudomonas aeruginosa
Method in brief: (§1)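 MIC (μg/mL) by susceptibility testing against up to nine strains per species, including strains with elevated Polymyxin MICs and resistant isolates.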

[3] = tested on: Escherichia coli
Method in brief: as §1

[4] = tested on: Acinetobacter baumannii
Method in brief: as §1

[5] = tested on: Klebsiella pneumoniae
Method in brief: as §1

| SMILES | HK-2 IC50 [1] | MIC P. aeruginosa 068 [2] | MIC P. aeruginosa 070 [2] | MIC P. aeruginosa ATCC 27853 [2] | MIC E. coli 058 [3] | MIC E. coli 061 [3] | MIC E. coli ATCC 25922 [3] | MIC A. baumanii 053 [4] | MIC A. baumanii 056 [4] | MIC A. baumanii ATCC BAA-747 [4] | MIC K. pneumoniae 063 [5] | MIC K. pneumoniae ATCC 4352 [5] | MIC E. coli 060 [3] | MIC K. pneumoniae 062 [5] | MIC K. pneumoniae 064 [5] | MIC K. pneumoniae 066 [5] | MIC K. pneumoniae 067 [5] | other results |
| --- | --- | --- | --- | --- | --- | --- | --- | --- | --- | --- | --- | --- | --- | --- | --- | --- | --- | --- |
| CC(C)CC(CN)C(=O)N[C@H](C(=O)N[C@@H](CN)C(=O)N[C@H]1CCNC(=O)[C@H]([C@@H](C)O)NC(=O)[C@H](CCN)NC(=O)[C@H](CCN)NC(=O)[C@H](CC(C)C)NC(=O)[C@@H](Cc2ccc(C3CCCCC3)cc2)NC(=O)[C@H](CCN)NC1=O)C(C)O (stereo partly drawn) [Example 27, 2-(Aminomethyl)-4-methylpentanoyl L-Thr-L-Dap-polymyxin [D-(4-cyclohexyl Phe)]-6 heptapeptide] (X2-[Thr(3ξ)][Dap][Dab][Dab][X12]L[Dab][Dab]T; lactam 3-C) | 18 mg/L | 4 mg/L (≈ 3.45 µM) | 2 mg/L (≈ 1.73 µM) | 0.5 mg/L (≈ 0.432 µM) | 2 mg/L (≈ 1.73 µM) | 8 mg/L (≈ 6.91 µM) | 0.5 mg/L (≈ 0.432 µM) | 8 mg/L (≈ 6.91 µM) | 4 mg/L (≈ 3.45 µM) | 0.5 mg/L (≈ 0.432 µM) | 8 mg/L (≈ 6.91 µM) | 0.25 mg/L (≈ 0.216 µM) | – | – | – | – | – | MIC P. aeruginosa CCUG 59347 [2]: 1 mg/L (≈ 0.863 µM); MIC E. coli NCTC 9001 [3]: 0.5 mg/L (≈ 0.432 µM); MIC A. baumanii NCTC 13424 [4]: 0.25 mg/L (≈ 0.216 µM); MIC K. pneumoniae 065 [5]: 0.5 mg/L (≈ 0.432 µM) |
| CC(C)CC(CN)C(=O)N[C@H](C(=O)N[C@@H](CCN)C(=O)N[C@H]1CCNC(=O)[C@H]([C@@H](C)O)NC(=O)[C@H](CCN)NC(=O)[C@H](CCN)NC(=O)[C@H](CC(C)C)NC(=O)[C@@H](CC2CCCCC2)NC(=O)[C@H](CCN)NC1=O)C(C)O (some centres unmarked) [Example 21] (X2-[Thr(3ξ)][Dab][Dab][Dab][dCha]L[Dab][Dab]T; lactam 3-C) | 83 mg/L | 32 mg/L (≈ 29.2 µM) | 32 mg/L (≈ 29.2 µM) | 0.5 mg/L (≈ 0.456 µM) | 8 mg/L (≈ 7.3 µM) | 32 mg/L (≈ 29.2 µM) | 0.25 mg/L (≈ 0.228 µM) | >64 mg/L | 64 mg/L (≈ 58.4 µM) | 0.5 mg/L (≈ 0.456 µM) | 64 mg/L (≈ 58.4 µM) | 0.25 mg/L (≈ 0.228 µM) | 8 mg/L (≈ 7.3 µM) | 16 mg/L (≈ 14.6 µM) | 8 mg/L (≈ 7.3 µM) | 16 mg/L (≈ 14.6 µM) | >64 mg/L | MIC E. coli 059 [3]: 16 mg/L (≈ 14.6 µM) |
| CCC(C)CCCCC(=O)N[C@@H](CCN)C(=O)N[C@H](C(=O)N[C@@H](CCN)C(=O)N[C@H]1CCNC(=O)[C@H]([C@@H](C)O)NC(=O)[C@H](CCN)NC(=O)[C@H](CCN)NC(=O)[C@H](CC(C)C)NC(=O)[C@@H](Cc2ccc(-c3ccncc3)cc2)NC(=O)[C@H](CCN)NC1=O)C(C)O (some centres unmarked) [Example 1] ({Octanoyl(6-Me)}-[Dab][Thr(3ξ)][Dab][Dab][Dab][X11]L[Dab][Dab]T; lactam 4-C) | 7 mg/L | 32 mg/L (≈ 25 µM) | >32 mg/L | 1 mg/L (≈ 0.781 µM) | – | 32 mg/L (≈ 25 µM) | 1 mg/L (≈ 0.781 µM) | >32 mg/L | >32 mg/L | 1 mg/L (≈ 0.781 µM) | >64 mg/L | 1 mg/L (≈ 0.781 µM) | 8 mg/L (≈ 6.25 µM) | >64 mg/L | 32 mg/L (≈ 25 µM) | 32 mg/L (≈ 25 µM) | >32 mg/L | – |
